Assay results as given in article PMC12441857, “Cannabinoid CB1 Receptor Activation Mitigates N‑Methyl‑D‑aspartate Receptor-Mediated Neurotoxicity” (ACS Pharmacology & Translational Science, 2025).

Molecular target: T1, cannabinoid CB1 receptor (CB1R) (Homo sapiens, UniProt P21554)
T1 construct: gene CNR1; SNAP-tagged CB1R in HEK-293T cells
Experiment: HTRF (Tag-lite) competition binding against fluorescent CELT-335
Type: cell-based

T1 sequence (P21554 whole entry): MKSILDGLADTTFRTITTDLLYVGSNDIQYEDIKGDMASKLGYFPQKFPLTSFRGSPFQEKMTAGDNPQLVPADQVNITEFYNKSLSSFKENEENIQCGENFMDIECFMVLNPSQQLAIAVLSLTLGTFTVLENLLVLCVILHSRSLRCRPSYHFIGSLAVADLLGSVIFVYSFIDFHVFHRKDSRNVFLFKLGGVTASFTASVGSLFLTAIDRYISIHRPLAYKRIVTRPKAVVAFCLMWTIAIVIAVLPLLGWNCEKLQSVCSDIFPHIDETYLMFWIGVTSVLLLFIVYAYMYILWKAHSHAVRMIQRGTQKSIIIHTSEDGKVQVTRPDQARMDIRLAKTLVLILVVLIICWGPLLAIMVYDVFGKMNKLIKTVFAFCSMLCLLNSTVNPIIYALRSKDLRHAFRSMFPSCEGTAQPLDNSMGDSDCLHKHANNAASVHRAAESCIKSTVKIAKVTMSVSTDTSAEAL

For `CCCCC/C=C\C/C=C\C/C=C\C/C=C\CCCC(=O)NCCCl` [ACEA], which Ki is on record?
Its Ki is 4.8 nM.
